The target in experiment [1] is UDP-N-acetylmuramate--L-alanine ligase (Escherichia coli (strain K12), UniProt P17952). Description: E.coli MurC assay. The conditions noted are these: 25 °C. Here is the method:
The reactions (25 μL) were carried out in 25 mM Tris-HCl pH 8.0, 10 mM ammonium sulfate, 1.25 mM DTT, 0.002% Brij-35, 10 mM MgCl2, 40 μM UNAM, 100 μM ATP, 40 μM L-alanine and 15 nM enzyme in 384-well plate at 25 C for 50 minutes.

Experiment [2] addresses UDP-N-acetylmuramate--L-alanine ligase (Pseudomonas aeruginosa (strain ATCC 15692 / DSM 22644 / CIP 104116 / JCM 14847 / LMG 12228 / 1C / PRS 101 / PAO1), UniProt Q9HW02). Briefly: P. aeruginosa MurC assay. The following applies: 25 °C. Here is the method:
The reactions (50 μL) were carried out in 50 mM Tris-HCl pH 8.0, 20 mM ammonium sulfate, 2.5 mM DTT, 0.002% Brij-35, 1 mM MgCl2, 18 μM UNAM, 38 μM ATP, 28 μM L-alanine, 2 μg/mL Poly uridine nucleic acid, 0.1 μM Polynucleotide Phosphorylase, 0.25X ribogreen and 3 nM enzyme in 384-well plate at 25 C for 60 minutes.

Structures are written as SMILES.

Chain of UDP-N-acetylmuramate--L-alanine ligase (Escherichia coli (strain K12), UniProt P17952) (P17952 whole entry): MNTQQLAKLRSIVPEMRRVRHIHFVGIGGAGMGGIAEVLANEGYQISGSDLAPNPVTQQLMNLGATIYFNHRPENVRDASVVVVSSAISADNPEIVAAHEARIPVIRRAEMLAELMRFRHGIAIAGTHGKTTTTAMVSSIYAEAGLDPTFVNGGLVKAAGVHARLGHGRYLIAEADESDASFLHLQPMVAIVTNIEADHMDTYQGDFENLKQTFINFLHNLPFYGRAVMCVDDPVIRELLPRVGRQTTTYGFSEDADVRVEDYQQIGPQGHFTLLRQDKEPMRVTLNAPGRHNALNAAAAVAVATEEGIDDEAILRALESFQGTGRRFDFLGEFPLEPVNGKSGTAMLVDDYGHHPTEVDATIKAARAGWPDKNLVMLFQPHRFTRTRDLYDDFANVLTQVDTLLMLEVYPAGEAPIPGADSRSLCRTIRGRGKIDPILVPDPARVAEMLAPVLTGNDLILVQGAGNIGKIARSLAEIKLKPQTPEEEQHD

A word on the IC50: it is the concentration needed to halve the response being measured. Lower therefore signals inhibition by little substance. In experiment [1], `Cn1nc(Nc2nc(N[C@@H]3c4ccccc4C[C@@H]3O)nc3n[nH]cc23)cc1C(C)(C)C` [(1R,2S)-1-(4-(5-tert-butyl-1-methyl-1H-pyrazol-3-ylamino)-1H-pyrazolo[3,4-d]pyrimidin-6-ylamino)-2,3-dihydro-1H-inden-2-ol (13)] returned an IC50 of 2 nM.

As to `Cn1nc(Nc2nc(N[C@@H](CO)c3ccccc3)nc3n[nH]cc23)cc1C(C)(C)C` [(R)-2-(4-(5-tert-butyl-1-methyl-1H-pyrazol-3-ylamino)-1H-pyrazolo[3,4-d]pyrimidin-6-ylamino)-2-phenylethanol (10)], the IC50 in experiment [1] was less than 5 nM; in experiment [2], 1 nM.

In the case of `Cn1nc(Nc2nc(N[C@@H](CO)C3CCCCC3)nc3n[nH]cc23)cc1C(C)(C)C` [(R)-2-(4-(5-tert-butyl-1-methyl-1H-pyrazol-3-ylamino)-1H-pyrazolo[3,4-d]pyrimidin-6-ylamino)-2-cyclohexylethanol (6)], in experiment [2], the IC50 turned out to be 0.6 nM.

Regarding `Cc1cc([C@H](CO)Nc2nc(Nc3cc(C(C)(C)C)n(C)n3)c3c[nH]nc3n2)on1` [(S)-2-(4-(5-tert-butyl-1-methyl-1H-pyrazol-3-ylamino)-1H-pyrazolo[3,4-d]pyrimidin-6-ylamino)-2-(3-methylisoxazol-5-yl)ethanol (12)], the values for the IC50 in experiment [1] and in experiment [2] were 60 nM and 7 nM, respectively.

Turning to `CN1C(=O)NC[C@H]1CNC(=O)OC[C@H](Nc1nc(Nc2cc(C(C)(C)C)n(C)n2)c2c[nH]nc2n1)c1ccccc1` [(R)-2-(4-(5-tert-butyl-1-methyl-1H-pyrazol-3-ylamino)-1H-pyrazolo[3,4-d]pyrimidin-6-ylamino)-2-phenylethyl ((S)-3-methyl-2-oxoimidazolidin-4-yl)methylcarbamate (24)], the IC50 is 3 nM in experiment [1] and less than 0.5 nM in experiment [2].

In the case of `CC(C)[C@H](CO)Nc1nc(Nc2cc(C(C)(C)C)n(C)n2)c2c[nH]nc2n1` [(R)-2-(4-(5-tert-butyl-1-methyl-1H-pyrazol-3-ylamino)-1H-pyrazolo[3,4-d]pyrimidin-6-ylamino)-3-methylbutan-1-ol (9)], the IC50 in experiment [1] stood at 188 nM; in experiment [2], 13 nM.

In the case of `Cn1nc(Nc2nc(N[C@@H](COC(=O)N3CCOC(CN)C3)c3ccccc3)nc3n[nH]cc23)cc1C(C)(C)C` (stereo partly drawn) [(R)-((R)-2-(4-(5-tert-butyl-1-methyl-1H-pyrazol-3-ylamino)-1H-pyrazolo[3,4-d]pyrimidin-6-ylamino)-2-phenylethyl) 2-(aminomethyl)morpholine-4-carboxylate (26)], the IC50 in experiment [1] came to 5 nM; in experiment [2] it was 0.6 nM.

`Cn1nc(Nc2nc(N[C@H](CO)c3ccccc3)nc3[nH]ncc23)cc1C(C)(C)C` [(S)-2-(4-(5-tert-butyl-1-methyl-1H-pyrazol-3-ylamino)-1H-pyrazolo[3,4-d]pyrimidin-6-ylamino)-2-phenylethanol (11)]: the figures for the half-maximal inhibitory concentration (IC50) in experiment [1] and in experiment [2] were 11 nM and 8 nM, respectively.

With `Cn1nc(Nc2nc(N[C@@H](CO)c3ccccn3)nc3n[nH]cc23)cc1C(C)(C)C` [(R)-2-((4-((5-(tert-butyl)-1-methyl-1H-pyrazol-3-yl)amino)-1H-pyrazolo[3,4-d]pyrimidin-6-yl)amino)-2-(pyridin-2-yl)ethanol (14)], the IC50 in experiment [1] came to 40 nM; in experiment [2] it was 8 nM.

In the case of `Cn1nc(Nc2nc(N[C@@H](COC(=O)NCc3cc(=O)c(O)cn3O)c3ccccc3)nc3[nH]ncc23)cc1C(C)(C)C` [(R)-2-(4-(5-tert-butyl-1-methyl-1H-pyrazol-3-ylamino)-1H-pyrazolo[3,4-d]pyrimidin-6-ylamino)-2-phenylethyl(1,5-dihydroxy-4-oxo-1,4-dihydropyridin-2-yl)methylcarbamate (23)], the figures for the IC50 in experiment [1] and in experiment [2] were less than 1 nM and 1.3 nM, respectively.

Regarding `Cn1nc(Nc2nc(NC(CO)C3CCOCC3)nc3n[nH]cc23)cc1C(C)(C)C` (stereo unspecified) [2-(4-(5-tert-butyl-1-methyl-1H-pyrazol-3-ylamino)-1H-pyrazolo[3,4-d]pyrimidin-6-ylamino)-2-(tetrahydro-2H-pyran-4-yl)ethanol (8)], the figures for the IC50 in experiment [1] and in experiment [2] were 101 nM and 11 nM, respectively.

As to `Cn1nc(Nc2nc(N[C@H](CO)c3cccc(F)c3)nc3n[nH]cc23)cc1C(C)(C)C` [(S)-2-((4-((5-(tert-butyl)-1-methyl-1H-pyrazol-3-yl)amino)-1H-pyrazolo[3,4-d]pyrimidin-6-yl)amino)-2-(3-fluorophenyl)ethanol (17)], the IC50 was 4 nM in experiment [1] and less than 0.5 nM in experiment [2].

Take `Cn1nc(Nc2nc(N[C@@H](COC(=O)NCCN)c3ccccc3)nc3n[nH]cc23)cc1C(C)(C)C` [(R)-2-(4-(5-tert-butyl-1-methyl-1H-pyrazol-3-ylamino)-1H-pyrazolo[3,4-d]pyrimidin-6-ylamino)-2-phenylethyl 2-aminoethylcarbamate (22)]: the IC50 in experiment [1] was determined as 4 nM; in experiment [2], 0.7 nM.

Consider `CC(C)c1cc(Nc2nc(N[C@H](CO)C3CCCCC3)nc3n[nH]cc23)[nH]n1` [(S)-2-cyclohexyl-2-(4-(5-isopropyl-1H-pyrazol-3-ylamino)-1H-pyrazolo[3,4-d]pyrimidin-6-ylamino)ethanol (3)], for which the IC50 in experiment [2] was 10 nM.

For `COc1cc([C@H](CO)Nc2nc(Nc3cc(C(C)(C)C)n(C)n3)c3c[nH]nc3n2)ccn1` [(R)-2-(4-(5-tert-butyl-1-methyl-1H-pyrazol-3-ylamino)-1H-pyrazolo[3,4-d]pyrimidin-6-ylamino)-2-(2-methoxypyridin-4-yl)ethanol (18)], the figures for the IC50 in experiment [1] and in experiment [2] were 15 nM and 1.2 nM, respectively.

Take `Cn1nc(Nc2nc(N[C@@H](CO)c3ccncc3Cl)nc3n[nH]cc23)cc1C(C)(C)C` [(R)-2-((4-((5-(tert-butyl)-1-methyl-1H-pyrazol-3-yl)amino)-1H-pyrazolo[3,4-d]pyrimidin-6-yl)amino)-2-(3-chloropyridin-4-yl)ethanol (19)]: the IC50 in experiment [1] came to 57 nM; in experiment [2], 8 nM.

As to `Cn1nc(Nc2nc(N[C@@H](COC(=O)NO)c3ccccc3)nc3n[nH]cc23)cc1C(C)(C)C` [(R)-2-(4-(5-tert-butyl-1-methyl-1H-pyrazol-3-ylamino)-1H-pyrazolo[3,4-d]pyrimidin-6-ylamino)-2-phenylethyl hydroxycarbamate (20)], the values for the IC50 in experiment [1] and in experiment [2] were 52 nM and 6 nM, respectively.

`OC[C@@H](Nc1nc(Nc2cc(C3CC3)n[nH]2)c2c[nH]nc2n1)C1CCCCC1` [(S)-2-cyclohexyl-2-(4-(3-cyclopropyl-1H-pyrazol-5-ylamino)-1H-pyrazolo[3,4-d]pyrimidin-6-ylamino)ethanol (2)] showed an IC50 in experiment [2] of 50 nM.

As for `Cn1nc(Nc2nc(N[C@@H](COC(=O)NCCN3CCC(=O)N3)c3ccccc3)nc3n[nH]cc23)cc1C(C)(C)C` [(R)-2-(4-(5-tert-butyl-1-methyl-1H-pyrazol-3-ylamino)-1H-pyrazolo[3,4-d]pyrimidin-6-ylamino)-2-phenylethyl 2-(3-oxopyrazolidin-1-yl)ethylcarbamate (25)], the results for the IC50 in experiment [1] and in experiment [2] were 60 nM and 7 nM, respectively.

As for `Cn1nc(Nc2nc(N[C@@H](CO)c3cccnc3)nc3n[nH]cc23)cc1C(C)(C)C` [(R)-2-((4-((5-(tert-butyl)-1-methyl-1H-pyrazol-3-yl)amino)-1H-pyrazolo[3,4-d]pyrimidin-6-yl)amino)-2-(pyridin-3-yl)ethanol (15)], the IC50 in experiment [2] was 9 nM.

`OCC1CCCCN1c1nc(Nc2cc(C3CC3)[nH]n2)c2cn[nH]c2n1` (stereo unspecified) [(1-(4-(3-cyclopropyl-1H-pyrazol-5-ylamino)-1H-pyrazolo[3,4-d]pyrimidin-6-yl)piperidin-2-yl)methanol (1)] came in with an IC50 in experiment [2] of 1000 nM.

As for `Cn1nc(Nc2nc(N[C@@H](COC(=O)NCCO)c3ccccc3)nc3n[nH]cc23)cc1C(C)(C)C` [(R)-2-(4-(5-tert-butyl-1-methyl-1H-pyrazol-3-ylamino)-1H-pyrazolo[3,4-d]pyrimidin-6-ylamino)-2-phenylethyl 2-hydroxyethylcarbamate (21)], the IC50 in experiment [1] was 3 nM; in experiment [2], 2 nM.

Regarding `Cn1nc(Nc2nc(N[C@H](CO)C3CCCCC3)nc3n[nH]cc23)cc1C(C)(C)C` [((S)-2-(4-(5-tert-butyl-1-methyl-1H-pyrazol-3-ylamino)-1H-pyrazolo[3,4-d]pyrimidin-6-ylamino)-2-cyclohexylethanol (7)], the IC50 in experiment [2] amounted to 5 nM.

Turning to `COc1ccc([C@H](CO)Nc2nc(Nc3cc(C(C)(C)C)n(C)n3)c3c[nH]nc3n2)cc1` [(R)-2-((4-((5-(tert-butyl)-1-methyl-1H-pyrazol-3-yl)amino)-1H-pyrazolo[3,4-d]pyrimidin-6-yl)amino)-2-(4-methoxyphenyl)ethanol (16)], the IC50 in experiment [1] worked out at 21 nM; in experiment [2] it was 4 nM.

The record behind these values is BindingDB's records for doi:10.1021/cb500360c (AstraZeneca, 2014).
